# Results: ChEMBL document CHEMBL5614376, “Discovery of MT-1207: A Novel, Potent Multitarget Inhibitor as a Promising Clinical Candidate for the Treatment of Hypertension” (J Med Chem, 2024)
# The source made the active and inactive calls. The calls are words filed in the database; no cut-off is given here.
# Legend:
# [1] = Tmax in female Sprague-Dawley rat at 10 mg/kg, po measured on day 1 by UP/LC/MS/MS analysis; assay type: ADME, organism-based; details: in vivo, time 1 day
# [2] = Cmax in female Sprague-Dawley rat at 10 mg/kg, po measured on day 1 by UP/LC/MS/MS analysis; assay type: ADME, organism-based; details: in vivo, time 1 day
# [3] = target: T1, 5-hydroxytryptamine receptor 2A (Homo sapiens, UniProt P28223); test: Displacement of [3H]Ketanserin from recombinant human 5-HT2A receptor extracted from CHO cell membrane incubated for 60 mins by radioligand binding assay; assay type: cell membranes
# [4] = Oral bioavailability in Sprague-Dawley rat at 3 mg/kg measured for 24 hrs by UPLC/MS/MS analysis; assay type: ADME, organism-based; details: in vivo
# [5] = Toxicity in male Sprague-Dawley rat assessed as change in body weight at 30 mg/kg, po qd treated for 13 weeks consecutively measured post-cessation of treatment; assay type: organism-based; details: in vivo, 2184 h
# [6] = Cmax in Sprague-Dawley rat at 3 mg/kg, po measured for 24 hrs by UPLC/MS/MS analysis; assay type: ADME, organism-based; details: in vivo
# [7] = AUC (0 to t) in female Sprague-Dawley rat at 30 mg/kg, po qd treated for 13 weeks consecutively measured after recovery period on day 91 by UP/LC/MS/MS analysis; assay type: ADME, organism-based; details: in vivo, time 91 day
# Rattus norvegicus [8] = test: Effect on postural hypotension in Sprague-Dawley rat assessed as change in systolic blood pressure at 2.5 mg/kg, po treated for >30 mins followed by induction of postural hypotension measured 10 secs after postural change (reference value: 127 +/- 12 mmHg); assay type: functional; details: time > 30.17 min, 0.5028 h
# Rattus norvegicus [9] = test: Effect on postural hypotension in Sprague-Dawley rat assessed as change in systolic blood pressure at 10 mg/kg, po treated for >30 mins followed by induction of postural hypotension measured 3 secs after postural change (reference value: 124 +/- 10 mmHg); assay type: functional; details: time > 30.05 min, 0.5008 h
# [10] = Oral bioavailability in Sprague-Dawley rat at 9 mg/kg measured for 24 hrs by UPLC/MS/MS analysis; assay type: ADME, organism-based; details: in vivo
# Rattus norvegicus [11] = test: Effect on postural hypotension in Sprague-Dawley rat assessed as change in systolic blood pressure at 2.5 mg/kg, po treated for >30 mins followed by induction of postural hypotension measured 40 secs after postural change (reference value: 128 +/- 11 mmHg); assay type: functional; details: time > 30.67 min, 0.5112 h
# [12] = Tmax in female Sprague-Dawley rat at 100 mg/kg, po qd treated for 13 weeks consecutively measured after recovery period on day 91 by UP/LC/MS/MS analysis; assay type: ADME, organism-based; details: in vivo, time 91 day
# [13] = AUC (0 to t) in female Sprague-Dawley rat at 10 mg/kg, po measured on day 1 by UP/LC/MS/MS analysis; assay type: ADME, organism-based; details: in vivo, time 1 day
# [14] = Tmax in Sprague-Dawley rat at 1 mg/kg, po measured for 24 hrs by UPLC/MS/MS analysis; assay type: ADME, organism-based; details: in vivo
# [15] = Acute toxicity in Sprague-Dawley rat assessed as discernible drug-related alterations at 250 to 1000 mg/kg, po single administration measured for 14 days; assay type: organism-based; details: in vivo, 336 h, dose 250-1000 mg/kg, time 14 day
# [16] = AUC (0 to t) in male Sprague-Dawley rat at 100 mg/kg, po qd treated for 13 weeks consecutively measured after recovery period on day 91 by UP/LC/MS/MS analysis; assay type: ADME, organism-based; details: in vivo, time 91 day
# Rattus norvegicus [17] = test: Effect on postural hypotension in Sprague-Dawley rat assessed as change in systolic blood pressure at 5 mg/kg, po treated for >30 mins followed by induction of postural hypotension measured 40 secs after postural change (reference value: 128 +/- 11 mmHg); assay type: functional; details: time > 30.67 min, 0.5112 h
# [18] = Half life in Sprague-Dawley rat at 1 mg/kg, po measured for 24 hrs by UPLC/MS/MS analysis; assay type: ADME, organism-based; details: in vivo
# [19] = Acute toxicity in Sprague-Dawley rat assessed as unscheduled animal fatality at 250 to 1000 mg/kg, po single administration measured for 14 days; assay type: organism-based; details: in vivo, 336 h, dose 250-1000 mg/kg, time 14 day
# Rattus norvegicus [20] = test: Effect on serum urea level in 2K2C renovascular hypertensive Sprague-Dawley rat model at 10 mg/kg, po measured after 9 weeks by biochemical analysis; assay type: functional, organism-based
# [21] = Toxicity in Sprague-Dawley rat assessed as unplanned animal mortality at 10 to 100 mg/kg, po qd treated for 13 weeks consecutively measured after 4 week recovery period; assay type: organism-based; details: in vivo, 2856 h, dose 10-100 mg/kg, time 17 weeks
# [22] = Cmax in Sprague-Dawley rat at 9 mg/kg, po measured for 24 hrs by UPLC/MS/MS analysis; assay type: ADME, organism-based; details: in vivo
# [23] = Toxicity in Sprague-Dawley rat assessed as body weight anomaly at 10 mg/kg, po qd treated for 13 weeks consecutively measured after 4 week recovery period; assay type: organism-based; details: in vivo, 2856 h, time 17 weeks
# [24] = Apparent volume of distribution during terminal phase in Sprague-Dawley rat at 3 mg/kg, po measured for 24 hrs by UPLC/MS/MS analysis; assay type: ADME, organism-based; details: in vivo, read-out: Vz/F
# [25] = Plasma protein binding in Beagle dog at 1 uM incubated for 30 mins; assay type: ADME, cell-free, Canis lupus familiaris; details: read-out: PPB (converted)
# [26] = AUC (0 to t) in Sprague-Dawley rat at 1 mg/kg, iv measured for 24 hrs by UPLC/MS/MS analysis; assay type: ADME, organism-based; details: in vivo
# Rattus norvegicus [27] = test: Effect on postural hypotension in Sprague-Dawley rat assessed as change in systolic blood pressure at 10 mg/kg, po treated for >30 mins followed by induction of postural hypotension measured 60 secs after postural change (reference value: 127 +/- 10 mmHg); assay type: functional; details: time > 31 min
# [28] = Tmax in male Sprague-Dawley rat at 100 mg/kg, po qd treated for 13 weeks consecutively measured after recovery period on day 91 by UP/LC/MS/MS analysis; assay type: ADME, organism-based; details: in vivo, time 91 day
# Rattus norvegicus [29] = test: Effect on postural hypotension in Sprague-Dawley rat assessed as change in systolic blood pressure at 2.5 mg/kg, po treated for >30 mins followed by induction of postural hypotension measured 20 secs after postural change (reference value: 129 +/- 11 mmHg); assay type: functional; details: time > 30.33 min, 0.5055 h
# [30] = AUC (0 to t) in male Sprague-Dawley rat at 100 mg/kg, po measured on day 1 by UP/LC/MS/MS analysis; assay type: ADME, organism-based; details: in vivo, time 1 day
# [31] = target: T1, 5-hydroxytryptamine receptor 2A; test: Displacement of [3H]Ketanserin from recombinant human 5-HT2A receptor extracted from CHO cell membrane at 1 nM incubated for 60 mins by radioligand binding assay relative to control; assay type: cell membranes; details: filed as antagonist
# [32] = Acute toxicity in Sprague-Dawley rat assessed as drug tolerance at 250 to 1000 mg/kg, po single administration measured for 14 days; assay type: organism-based; details: in vivo, 336 h, dose 250-1000 mg/kg, time 14 day
# [33] = Cmax in female Sprague-Dawley rat at 30 mg/kg, po qd treated for 13 weeks consecutively measured after recovery period on day 91 by UP/LC/MS/MS analysis; assay type: ADME, organism-based; details: in vivo, time 91 day
# [34] = Tmax in male Sprague-Dawley rat at 100 mg/kg, po measured on day 1 by UP/LC/MS/MS analysis; assay type: ADME, organism-based; details: in vivo, time 1 day
# [35] = Tmax in Sprague-Dawley rat at 1 mg/kg, iv measured for 24 hrs by UPLC/MS/MS analysis; assay type: ADME, organism-based; details: in vivo
# T1 sequence (P28223 whole entry): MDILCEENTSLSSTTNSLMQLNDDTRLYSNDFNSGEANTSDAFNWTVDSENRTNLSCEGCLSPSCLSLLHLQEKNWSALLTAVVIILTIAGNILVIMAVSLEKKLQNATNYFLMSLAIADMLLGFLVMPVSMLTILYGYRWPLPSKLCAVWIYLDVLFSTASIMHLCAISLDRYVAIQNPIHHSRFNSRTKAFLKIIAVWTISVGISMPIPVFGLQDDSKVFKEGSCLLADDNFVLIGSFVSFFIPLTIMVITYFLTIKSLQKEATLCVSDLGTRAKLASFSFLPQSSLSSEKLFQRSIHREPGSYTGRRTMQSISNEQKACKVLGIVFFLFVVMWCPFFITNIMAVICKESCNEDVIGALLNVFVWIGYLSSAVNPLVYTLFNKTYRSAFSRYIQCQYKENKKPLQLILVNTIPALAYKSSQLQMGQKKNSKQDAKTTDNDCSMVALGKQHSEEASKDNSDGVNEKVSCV
structure (smiles),measurement,setting,value
Cl.c1ccc2c(c1)nnn2CCCCN1CCN(c2nsc3ccccc23)CC1,Tmax,[1],1.3 h
same,Cmax,[2],88.7 ng/mL
same,IC50,[3],0.27 nM
same,Ki,[3],0.079 nM
same,bioavailability,[4],31.9%
same,Activity,[5],Non-Toxic
same,Cmax,[6],85.7 ng/mL
same,AUC(0-t) at 2184 h,[7],1470 ng·h/mL
same,Activity,Rattus norvegicus [8],89 mmHg
same,Activity,Rattus norvegicus [9],81 mmHg
same,bioavailability,[10],15.3%
same,Activity,Rattus norvegicus [11],92 mmHg
same,Tmax,[12],2.5 h
same,AUC(0-t) at 24 h,[13],344 ng·h/mL
same,Tmax,[14],9.6 min
same,Activity,[15],Non-Toxic
same,AUC(0-t) at 2184 h,[16],4790 ng·h/mL
same,Activity,Rattus norvegicus [17],83 mmHg
same,half-life,[18],1.5 h
same,Activity,[19],Non-Toxic
same,Activity,Rattus norvegicus [20],Active
same,Activity,[21],Non-Toxic
same,Cmax,[22],186 ng/mL
same,Activity,[23],Non-Toxic
same,Vd/F,[24],22.4 L
same,"fraction unbound at 0.5 h, 1 µM",[25],0.006
same,AUC(0-t) at 24 h,[26],440 ng·h/mL
same,Activity,Rattus norvegicus [27],85 mmHg
same,Tmax,[28],1.3 h
same,Activity,Rattus norvegicus [29],91 mmHg
same,AUC(0-t) at 24 h,[30],1460 ng·h/mL
same,inhibition,[31],43.7%
same,Activity,[32],Non-Toxic
same,Cmax,[33],333 ng/mL
same,Tmax,[34],1.3 h
same,Tmax,[35],0.25 h
